Test results published in patent US20090326037A1 (priority 2005, published 2009).
“And” between values parts separate entries of the source, which are not always exact repeats. Equal entries are not always repeated.

System: influenza A/Singapore/1/57 virus
Assay: microbe, parasite or virus in culture
Assay type: cell-based
[1] = Influenza A virus, MDCK, read-out: percent of inhibition of viral reproduction

## 1-methyl-2-(4-oxyethyl-phenylsulfomethyl)-3-carbethoxy-4-dimethylaminomethyl-5-oxy-6-bromindol
A or C 0.3 μg/ml + Oseltamivir 0.4 μg, added 2 hours after infection
  Percent of inhibition of OD 490: 15%
A or C 0.3 μg/ml + Oseltamivir 1.2 μg, added 2 hours after infection
  Percent of inhibition of OD 490: 16%
A or C 0.3 μg/ml + Oseltamivir 4.1 μg, added 2 hours after infection
  Percent of inhibition of OD 490: 18%
A or C 0.3 μg/ml + Oseltamivir 12.3 μg, added 2 hours after infection
  Percent of inhibition of OD 490: 35%
A or C 0.3 μg/ml + Oseltamivir 41 μg, added 2 hours after infection
  Percent of inhibition of OD 490: 40%
A or C 0.3 μg/ml alone (Oseltamivir 0), added 2 hours after infection
  Percent of inhibition of OD 490: no
A or C 1 μg/ml + Oseltamivir 0.4 μg, added 2 hours after infection
  Percent of inhibition of OD 490: 30%
A or C 1 μg/ml + Oseltamivir 1.2 μg, added 2 hours after infection
  Percent of inhibition of OD 490: 31%
A or C 1 μg/ml + Oseltamivir 4.1 μg, added 2 hours after infection
  Percent of inhibition of OD 490: 41%
A or C 1 μg/ml + Oseltamivir 12.3 μg, added 2 hours after infection
  Percent of inhibition of OD 490: 88%
A or C 1 μg/ml + Oseltamivir 41 μg, added 2 hours after infection
  Percent of inhibition of OD 490: 90%
A or C 1 μg/ml alone (Oseltamivir 0), added 2 hours after infection
  Percent of inhibition of OD 490: no
A or C 3 μg/ml + Oseltamivir 0.4 μg, added 2 hours after infection
  Percent of inhibition of OD 490: 35%
A or C 3 μg/ml + Oseltamivir 1.2 μg, added 2 hours after infection
  Percent of inhibition of OD 490: 37%
A or C 3 μg/ml + Oseltamivir 4.1 μg, added 2 hours after infection
  Percent of inhibition of OD 490: 60%
A or C 3 μg/ml + Oseltamivir 12.3 μg, added 2 hours after infection
  Percent of inhibition of OD 490: 91%
A or C 3 μg/ml + Oseltamivir 41 μg, added 2 hours after infection
  Percent of inhibition of OD 490: 100, 100%
A or C 3 μg/ml alone (Oseltamivir 0), added 2 hours after infection
  Percent of inhibition of OD 490: no
A or C 5 μg/ml + Oseltamivir 0.4 μg, added 2 hours after infection
  Percent of inhibition of OD 490: 50%
A or C 5 μg/ml + Oseltamivir 1.2 μg, added 2 hours after infection
  Percent of inhibition of OD 490: 40%
A or C 5 μg/ml + Oseltamivir 4.1 μg, added 2 hours after infection
  Percent of inhibition of OD 490: 96%
A or C 5 μg/ml + Oseltamivir 12.3 μg, added 2 hours after infection
  Percent of inhibition of OD 490: 96%
A or C 5 μg/ml + Oseltamivir 41 μg, added 2 hours after infection
  Percent of inhibition of OD 490: 100, 100%
A or C 5 μg/ml alone (Oseltamivir 0), added 2 hours after infection
  Percent of inhibition of OD 490: no
A or C 10 μg/ml + Oseltamivir 0.4 μg, added 2 hours after infection
  Percent of inhibition of OD 490: 46%
A or C 10 μg/ml + Oseltamivir 1.2 μg, added 2 hours after infection
  Percent of inhibition of OD 490: 65%
A or C 10 μg/ml + Oseltamivir 4.1 μg, added 2 hours after infection
  Percent of inhibition of OD 490: 95%
A or C 10 μg/ml + Oseltamivir 12.3 μg, added 2 hours after infection
  Percent of inhibition of OD 490: 95%
A or C 10 μg/ml + Oseltamivir 41 μg, added 2 hours after infection
  Percent of inhibition of OD 490: 98%
A or C 10 μg/ml alone (Oseltamivir 0), added 2 hours after infection
  Percent of inhibition of OD 490: 10%

## CC(=O)N[C@H]1[C@H]([C@H](O)[C@H](O)CO)OC(C(=O)O)=C[C@@H]1N=C(N)N [Zanamivir]
Zanamivir 0.3 μg alone (A or B 0 μg/ml), two values: A series, B series, added 2 hours after infection
  Percent of inhibition of OD 490: 27% and 15%
Zanamivir 1 μg alone (A or B 0 μg/ml), two values: A series, B series, added 2 hours after infection
  Percent of inhibition of OD 490: 29% and 15%
Zanamivir 3.3 μg alone (A or B 0 μg/ml), two values: A series, B series, added 2 hours after infection
  Percent of inhibition of OD 490: 36% and 20%
Zanamivir 10 μg alone (A or B 0 μg/ml), two values: A series, B series, added 2 hours after infection
  Percent of inhibition of OD 490: 43% and 22%
Zanamivir 33 μg alone (A or B 0 μg/ml), two values: A series, B series, added 2 hours after infection
  Percent of inhibition of OD 490: 49% and 28%
Ten times greater amount (than 3.3 mg) of zanamivir or oseltamivir without the addition of arbidol
  suppression of reproduction: 50%

## NC(=O)c1ncn([C@@H]2O[C@H](CO)[C@@H](O)[C@H]2O)n1 [Ribavirin]
[1]
  inhibition at 1 µg/mL: 5%
  inhibition at 3 µg/mL: 25%
  inhibition at 10 µg/mL: 30%
  inhibition at 15 µg/mL: 38%

## CC(N)C12CC3CC(CC(C3)C1)C2 (centres unmarked) [Remantadin]
Remantadin 5 μg/ml alone (A or D 0 μg/ml), two values: A series, D series, added 30 min prior to infection
  Percent of inhibition of OD 490: 56% and 41%
Remantadin 10 μg/ml alone (A or D 0 μg/ml), two values: A series, D series, added 30 min prior to infection
  Percent of inhibition of OD 490: 59% and 40%

## 1-methyl-2-(n-methyl-phenylsulfomethyl)-3-carbethoxy-4-dimethylaminomethyl-5-oxy-6-bromindol
A or D 1 μg/ml + Amantadin 0.3 μg/ml, added 30 min prior to infection
  Percent of inhibition of OD 490: 17%
A or D 1 μg/ml + Amantadin 1 μg/ml, added 30 min prior to infection
  Percent of inhibition of OD 490: 18%
A or D 1 μg/ml + Amantadin 5 μg/ml, added 30 min prior to infection
  Percent of inhibition of OD 490: 29%
A or D 1 μg/ml + Amantadin 10 μg/ml, added 30 min prior to infection
  Percent of inhibition of OD 490: 45%
A or D 1 μg/ml + Remantadin 0.3 μg/ml, added 30 min prior to infection
  Percent of inhibition of OD 490: 18%
A or D 1 μg/ml + Remantadin 1 μg/ml, added 30 min prior to infection
  Percent of inhibition of OD 490: 20%
A or D 1 μg/ml + Remantadin 5 μg/ml, added 30 min prior to infection
  Percent of inhibition of OD 490: 36%
A or D 1 μg/ml + Remantadin 10 μg/ml, added 30 min prior to infection
  Percent of inhibition of OD 490: 42%
A or D 1 μg/ml alone (Amantadin 0), added 30 min prior to infection
  Percent of inhibition of OD 490: 15%
A or D 1 μg/ml alone (Remantadin 0), added 30 min prior to infection
  Percent of inhibition of OD 490: 12%
A or D 5 μg/ml + Amantadin 0.3 μg/ml, added 30 min prior to infection
  Percent of inhibition of OD 490: 38%
A or D 5 μg/ml + Amantadin 1 μg/ml, added 30 min prior to infection
  Percent of inhibition of OD 490: 41%
A or D 5 μg/ml + Amantadin 5 μg/ml, added 30 min prior to infection
  Percent of inhibition of OD 490: 53%
A or D 5 μg/ml + Amantadin 10 μg/ml, added 30 min prior to infection
  Percent of inhibition of OD 490: 70%
A or D 5 μg/ml + Remantadin 0.3 μg/ml, added 30 min prior to infection
  Percent of inhibition of OD 490: 48%
A or D 5 μg/ml + Remantadin 1 μg/ml, added 30 min prior to infection
  Percent of inhibition of OD 490: 44%
A or D 5 μg/ml + Remantadin 5 μg/ml, added 30 min prior to infection
  Percent of inhibition of OD 490: 50%
A or D 5 μg/ml + Remantadin 10 μg/ml, added 30 min prior to infection
  Percent of inhibition of OD 490: 73%
A or D 5 μg/ml alone (Amantadin 0), added 30 min prior to infection
  Percent of inhibition of OD 490: 24%
A or D 5 μg/ml alone (Remantadin 0), added 30 min prior to infection
  Percent of inhibition of OD 490: 20%
A or D 10 μg/ml + Amantadin 0.3 μg/ml, added 30 min prior to infection
  Percent of inhibition of OD 490: 57%
A or D 10 μg/ml + Amantadin 1 μg/ml, added 30 min prior to infection
  Percent of inhibition of OD 490: 70%
A or D 10 μg/ml + Amantadin 5 μg/ml, added 30 min prior to infection
  Percent of inhibition of OD 490: 75%
A or D 10 μg/ml + Amantadin 10 μg/ml, added 30 min prior to infection
  Percent of inhibition of OD 490: 80%
A or D 10 μg/ml + Remantadin 0.3 μg/ml, added 30 min prior to infection
  Percent of inhibition of OD 490: 69%
A or D 10 μg/ml + Remantadin 1 μg/ml, added 30 min prior to infection
  Percent of inhibition of OD 490: 69%
A or D 10 μg/ml + Remantadin 5 μg/ml, added 30 min prior to infection
  Percent of inhibition of OD 490: 70%
A or D 10 μg/ml + Remantadin 10 μg/ml, added 30 min prior to infection
  Percent of inhibition of OD 490: 75%
A or D 10 μg/ml alone (Amantadin 0), added 30 min prior to infection
  Percent of inhibition of OD 490: 40%
A or D 10 μg/ml alone (Remantadin 0), added 30 min prior to infection
  Percent of inhibition of OD 490: 54%

## NC12CC3CC(CC(C3)C1)C2 [Amantadin]
Amantadin 5 μg/ml alone (A or D 0 μg/ml), two values: A series, D series, added 30 min prior to infection
  Percent of inhibition of OD 490: 50% and 30%
Amantadin 10 μg/ml alone (A or D 0 μg/ml), two values: A series, D series, added 30 min prior to infection
  Percent of inhibition of OD 490: 56% and 38%
